Laboratory results as given in patent US20140106967A1, “AUXIN PLANT GROWTH REGULATORS” (The Governors of The University of Alberta, priority 2011, published 2014).

Tests used:
[1] = tested on: 'Harvest HRS'-Spring hard-red wheat; test: Wheat growth chamber experiment, with or without heat stress (Tables W2, W3); assay type: in vivo, Triticum aestivum
Method: In another experiment, seeds of the wheat cultivar Harvest HRS were planted at an approximate depth of 1.5 cm in 5 inch square plastic pots (6 inch pot depth; 3 seeds per pot) in 1:1 Sunshine #4 potting mix (Sun Gro Horticulture, Vancouver, Canada) and sand. The seedlings were thinned to one seedling per pot approximately 2 weeks after seeding. Plants were grown in a Conviron growth chamber maintained at 24° C. light/20° C. dark (16 hours light/8 hours dark photoperiod; using 54W/835/HO high fluorescent bulbs [Phillips, Holland] with an average photon flux density of 540 μE m^−2s^−2. Plant were fertilized with 175 ppm 20-20-20 (N:P:K) every 3 to 4 days.
Aqueous solutions of 4-ME-IAA at 1×10^−6, 1×10^−5, or 1×10^−4 M in 0.1% (v/v) Tween 80 or a control solution (0.1% [v/v] Tween 80) were applied (sprayed on plant to cover) when the majority of the plants were at the BBCH scale 45 developmental stage (late boot stage where the flag leaf sheath [boot] is swollen with the inflorescence, but the inflorescence has not emerged from the boot). The experiment was arranged in a completely randomized design within the growth chamber.
The heat stress treatment was imposed by moving plants to receive the heat stress to a different growth chamber ((heat stress chamber) for 6 days. In the heat stress chamber, the light cycle began at 7:00 hours at a 24° C. air temperature. The heat treatment began at 11:00 hours (33° C. air temperature) and was maintained for 6 hours (until 17:00 hours). Following the heat treatment, the remainder of the light cycle was maintained at a 24° C. air temperature. The dark cycle (began at 23:00 hours) was maintained at 20° C. The photoperiod was 16 h light/8 h dark at an average photon flux density of 492 μE m^−2s^−2 using 54W/835/HO high fluorescent bulbs (Phillips, Holland). After 6 days, the heat stress-treated plants were returned to the original growth chamber maintained at non-heat stress conditions to develop to maturity.

[2] = tested on: Pisum sativum L. cv. Carneval; test: Growth chamber pea study: one 4-ME-IAA spray, heat-stressed and non-stressed plants (Tables 1, 2); assay type: in vivo; design: more pods per plant with mature seeds than control / increase in number of seeds per plant vs control / increase in total seed weight per plant vs control: tested at 1 µM
Text: ‘Carneval’ (Pisum sativum L.) was chosen as a model cultivar as a semi-dwarf (semi-leafless; an field pea which is used extensively in crop agriculture. ‘Carneval’ has white flowers and yellow cotyledons at maturity, begins to flower at about the 15 to 17th node under long day conditions. Seeds of ‘Carneval’ were planted at an approximate depth of 2.5 cm in 3-L plastic pots (4 seeds per pot and thinned to 2 plants per pot after approximately 2 weeks) in 1:1 Sunshine #4 potting mix (Sun Gro Horticulture, Vancouver, Canada) and sand. Approximately 15 cc of slow-release fertilizer (14-14-14) was added to the potting mix at planting. The experiment was arranged in a completely randomized design and grown at the University of Alberta in a growth chamber set at 19° C./17° C. (day/night) with a 16/8-h photoperiod under cool-white fluorescent lights (F54/15/835/HO high fluorescent bulbs, Phillips, Holland; 350 μE m^2 s^−2, measured with a LI-188 photometer, Li-Cor Biosciences, Lincoln, Nebr.). For the heat stress treatment, plants were placed in a separate growth chamber with a 16/8-h photoperiod under cool-white fluorescent lights (F54/15/835/HO high fluorescent bulbs, Phillips, Holland) for 4 days where the temperature was cycled over a 24 hr period as follows: 34° C. air temperature for 6 hours per day (between 11:00 and 17:00 hrs) for 4 days during the light cycle; the remainder of the light cycle was maintained at a 22° C. air temperature; the dark cycle was maintained at 19° C. After the 4 day heat treatment, the plants were returned to the same growth chamber they were originally grown in, where they were taken to maturity. One application of 4-ME-IAA (1 μM in 0.1% Tween 80) or 0.1% Tween 80 (control) was applied as a spray to the entire plant to cover when the first flowering node of the main stem was at the flower bud or full bloom stage. For the heat stress treatment, the hormone or control application was completed 16 hrs prior to the initiation of the first heat-stress cycle.

[3] = 1×10^−4 M, 6 days of heat stress (33° C. 6 h/day)
[4] = 1×10^−5 M, 6 days of heat stress (33° C. 6 h/day)
[5] = 1×10^−6 M, 6 days of heat stress (33° C. 6 h/day)
[6] = 1 μM, non-heat stressed, at plant maturity
[7] = non-stressed, at plant maturity

Cc1cccc2[nH]cc(CC(=O)O)c12 [4-ME-IAA, 4-methyl-indole-3-acetic acid]
Length of spike peduncle [1, 3]: 70 ± 10 mm
Number of spikes per plant [1, 3]: 25 ± 3
Seed number per plant [1, 3]: 130 ± 23
Seed number per spike [1, 3]: 5 ± 1
Seed weight per plant [1, 3]: 4.08 ± 0.67 g
increase in seed number per plant vs control ([1]; 1×10^−4 M, heat stress): 73%
increase in seed weight per plant vs control ([1]; 1×10^−4 M, heat stress): 72%
Length of spike peduncle ([1]; 1×10^−4 M, non-heat stress): 62 ± 5 mm
Number of spikes per plant ([1]; 1×10^−4 M, non-heat stress): 25 ± 1
Seed number per plant ([1]; 1×10^−4 M, non-heat stress): 163 ± 32
Seed number per spike ([1]; 1×10^−4 M, non-heat stress): 7 ± 1
Seed weight per plant ([1]; 1×10^−4 M, non-heat stress): 4.87 ± 0.95 g
Length of spike peduncle [1, 4]: 57 ± 5 mm
Number of spikes per plant [1, 4]: 24 ± 4
Seed number per plant [1, 4]: 57 ± 18
Seed number per spike [1, 4]: 3 ± 1
Seed weight per plant [1, 4]: 1.83 ± 0.57 g
Length of spike peduncle ([1]; 1×10^−5 M, non-heat stress): 82 ± 7 mm
Number of spikes per plant ([1]; 1×10^−5 M, non-heat stress): 22 ± 3
Seed number per plant ([1]; 1×10^−5 M, non-heat stress): 256 ± 42
Seed number per spike ([1]; 1×10^−5 M, non-heat stress): 12 ± 1
Seed weight per plant ([1]; 1×10^−5 M, non-heat stress): 7.56 ± 1.36 g
Length of spike peduncle [1, 5]: 72 ± 7 mm
Number of spikes per plant [1, 5]: 28 ± 3
Seed number per plant [1, 5]: 151 ± 43
Seed number per spike [1, 5]: 5 ± 1
Seed weight per plant [1, 5]: 4.49 ± 1.25 g
increase in number of floral spikes per plant vs control ([1]; 1×10^−6 M, heat stress): 40%
increase in seed number per plant vs control ([1]; 1×10^−6 M, heat stress): 101%
increase in seed weight per plant vs control ([1]; 1×10^−6 M, heat stress): 90%
Length of spike peduncle ([1]; 1×10^−6 M, non-heat stress): 63 ± 6 mm
Number of spikes per plant ([1]; 1×10^−6 M, non-heat stress): 24 ± 3
Seed number per plant ([1]; 1×10^−6 M, non-heat stress): 254 ± 81
Seed number per spike ([1]; 1×10^−6 M, non-heat stress): 10 ± 2
Seed weight per plant ([1]; 1×10^−6 M, non-heat stress): 8.17 ± 2.66 g
plant maturation (dry-down), FIG. 3 ([2]; 1 μM in 0.1% Tween 80, 34 days after spray): stimulated maturation of the plant
Number of pods per plant [2, 6]: 14.9 ± 0.6
Number of seeds per plant [2, 6]: 57.6 ± 3.5
Number of stems/stems with pods per plant [2, 6]: 1.1 ± 0.1
Total seed weight per plant [2, 6]: 13.56 ± 0.64 g
Weight per seed [2, 6]: 0.24 ± 0.01 g
Number of pods with developing seeds per plant ([2]; Heat-stressed (34° C. 6 h/day, 4 days), 1 μM in 0.1% Tween 80, 16 hr before heat, 9 to 10 days after removal from heat treatment): 10.6 ± 0.8
Number of pods with developing seeds per plant ([2]; Non-stressed (19° C./17° C.), 1 μM in 0.1% Tween 80, 9 to 10 days): 15.4 ± 0.6
increase in pod retention vs control ([2]; heat-stress conditions, 9-10 days after application): 112%
pod retention, FIG. 2 ([2]; non-stressed and heat-stress conditions, 9-10 days after application): increased pod retention
increase in pod retention vs control ([2]; non-stressed conditions, 9-10 days after application): 41%
Weight per seed [2, 7]: 240 mg per seed
increase in number of seeds per plant vs control [2, 7]: 39%
increase in total seed weight per plant vs control [2, 7]: 23%
more pods per plant with mature seeds than control [2, 7]: 42%
